Among the data in ChEMBL document CHEMBL1153791, “Acylphloroglucinol, biyouyanagiol, biyouyanagin B, and related spiro-lactones from Hypericum chinense” (J Nat Prod, 2009) are IC50 values, retold here.

What all share (type): functional, cell-based
One experiment deals with KB. The experiment is described as follows: Cytotoxicity against human KB cells after 48 hrs by MTT assay. (In general: Tetrazolium dyes change colour on reduction, which living cells bring about.)
The test system of another experiment is MCF7. The experiment is described as follows: Cytotoxicity against human MCF7 cells after 48 hrs by MTT assay. As to conditions: MCF7, 48 h.
Experiment [1] can be described thus: Cytotoxicity against human multidrug resistant KB-C2 cells after 48 hrs by MTT assay in the presence of colchicine. Particulars: KB-C2, 48 h.
In experiment [2] the test system is K562. The experiment is described as follows: Cytotoxicity against human doxorubicin-resistant K562 cells after 48 hrs by MTT assay. As to conditions: K562, 48 h.
A further experiment deals with COLO 205. The experiment is described as follows: Cytotoxicity against human COLO205 cells after 48 hrs by MTT assay. Particulars: COLO 205, 48 h.
A short description of experiment [3]: Cytotoxicity against human multidrug resistant KB-C2 cells after 48 hrs by MTT assay. As to conditions: KB-C2, 48 h.
Experiment [4] concerns K562. Description: Cytotoxicity against human K562 cells after 48 hrs by MTT assay. Particulars: K562, 48 h.

A word on the IC50: it is the midpoint of a concentration-inhibition curve.

Converted amounts (≈) assume the structure as drawn.

With `C=C[C@@]1(C)COC(=O)C1(O)C(=O)/C=C(\O)c1ccccc1` (some centres undefined), the IC50 in the experiment with KB was over 100 µg/mL; in the experiment on MCF7 it was 62.1 µg/mL (≈ 215 µM); in experiment [1], 53.1 µg/mL; with K562 [2], 33.7 µg/mL (≈ 117 µM); in the experiment on COLO 205, 79 µg/mL (≈ 274 µM); in experiment [3], over 100 µg/mL. Moreover, in the experiment on K562 [4], the IC50 is over 100 µg/mL.

As for `COc1cc(/C=C/C(=O)OC[C@H](Cc2ccc(O)c(OC)c2)[C@H](COC(=O)/C=C/c2ccc(O)c(OC)c2)Cc2ccc(O)c(OC)c2)ccc1O`, the IC50 with KB is 14.1 µg/mL (≈ 19.7 µM); in the experiment with MCF7, 5.9 µg/mL (≈ 8.25 µM); in experiment [1], 4.5 µg/mL; with K562 [2], 19.9 µg/mL (≈ 27.8 µM); with COLO 205 it was 5.2 µg/mL (≈ 7.28 µM); in experiment [3], 9.4 µg/mL (≈ 13.2 µM). Also, the IC50 in the experiment with K562 [4] is 17.3 µg/mL (≈ 24.2 µM).

As for `C=C[C@@]1(C)COC(=O)[C@]12O[C@]1(c3ccccc3)[C@H](C2=O)[C@H]2[C@H]([C@H](C)CCC=C(C)C)CC=C(C)[C@H]21` [BIYOUYANAGIN A], the IC50 was found to be 38.8 µg/mL (≈ 81.7 µM) with KB; 27.1 µg/mL (≈ 57.1 µM) in the experiment on MCF7; 16.8 µg/mL in experiment [1]; 16.6 µg/mL (≈ 35 µM) in the experiment with K562 [2]; 26.9 µg/mL (≈ 56.7 µM) in the experiment with COLO 205; 36.2 µg/mL (≈ 76.3 µM) in experiment [3]. Moreover, in the experiment with K562 [4], the IC50 was found to be 31.1 µg/mL (≈ 65.5 µM).

As for `COC(=O)[C@@]1(O)C(=O)[C@](C)(CC=C(C)C)C(=O)C12C[C@H]1[C@@H](CC[C@@]1(C)O)[C@@](C)(O)C2` (some centres undefined) [BIYOUYANAGIOL], the IC50 in the experiment with KB was over 100 µg/mL; with MCF7 it was over 100 µg/mL; in experiment [1] it was 47.8 µg/mL; with K562 [2] it was over 100 µg/mL; with COLO 205, over 100 µg/mL; in experiment [3] it was over 100 µg/mL. The molecule further registered an IC50 with K562 [4] of over 100 µg/mL.

Take `COc1cccc2c1C(=O)c1c(O)c3c(c(O)c1C2=O)C[C@@](O)(C(C)=O)C[C@@H]3O[C@H]1C[C@H](N)[C@H](O)[C@H](C)O1` [DAUNORUBICIN]: the IC50 in the experiment on KB was 0.22 µg/mL (≈ 0.417 µM); in the experiment on MCF7, 0.33 µg/mL (≈ 0.626 µM); with K562 [2], 15.2 µg/mL (≈ 28.8 µM); in the experiment with COLO 205, 0.5 µg/mL (≈ 0.948 µM); in experiment [3], over 100 µg/mL; in the experiment on K562 [4], 0.45 µg/mL (≈ 0.853 µM).

With `OC[C@H]1[C@@H](Cc2ccc3c(c2)OCO3)CO[C@@H]1c1ccc2c(c1)OCO2` [DIHYDROSESAMIN], the IC50 with KB was over 100 µg/mL; in the experiment with MCF7, 62.1 µg/mL (≈ 174 µM); in experiment [1] it was 53.1 µg/mL; in the experiment on K562 [2], 33.7 µg/mL (≈ 94.6 µM); in the experiment with COLO 205 it was 79 µg/mL (≈ 222 µM); in experiment [3], over 100 µg/mL. The molecule also yielded an IC50 with K562 [4] of over 100 µg/mL.

Consider `COc1cc(/C=C/C(=O)OC[C@H](Cc2ccc(O)c(OC)c2)[C@H](CO)Cc2ccc(O)c(OC)c2)ccc1O` [HANULTARIN], for which the IC50 was 33.7 µg/mL (≈ 62.6 µM) in the experiment on KB; 18.9 µg/mL (≈ 35.1 µM) in the experiment on MCF7; 20.9 µg/mL in experiment [1]; 33.1 µg/mL (≈ 61.5 µM) with K562 [2]; 16.8 µg/mL (≈ 31.2 µM) in the experiment with COLO 205; 20.7 µg/mL (≈ 38.4 µM) in experiment [3]. This molecule gave an IC50 in the experiment with K562 [4] of 35.2 µg/mL (≈ 65.4 µM).

For `C=C[C@@]1(C)COC(=O)[C@]12OC([C@H](C)CC)=CC2=O` [HYPERLACTONE A], the half-maximal inhibitory concentration (IC50) in the experiment on KB was over 100 µg/mL; in the experiment on MCF7, over 100 µg/mL; in experiment [1], 70.8 µg/mL; in the experiment with K562 [2], 47.1 µg/mL (≈ 188 µM); with COLO 205 it was over 100 µg/mL; in experiment [3], over 100 µg/mL. For the same molecule, the IC50 in the experiment on K562 [4] was over 100 µg/mL.

Regarding `C=C[C@@]1(C)COC(=O)[C@]12OC(c1ccccc1)=CC2=O` [HYPERLACTONE C], the IC50 in the experiment on KB was over 100 µg/mL; with MCF7, 77.7 µg/mL (≈ 287 µM); in experiment [1] it was 51.8 µg/mL; in the experiment with K562 [2], 32.8 µg/mL (≈ 121 µM); with COLO 205, 58.5 µg/mL (≈ 216 µM); in experiment [3], over 100 µg/mL. For the same molecule, the IC50 with K562 [4] is over 100 µg/mL.

In the case of `C=C[C@@]1(C)COC(=O)C1C(=O)/C=C(\O)c1ccccc1` (some centres undefined) [HYPERLACTONE D], the IC50 was determined as 61 µg/mL (≈ 224 µM) with KB; 52.9 µg/mL (≈ 194 µM) in the experiment with MCF7; 24.6 µg/mL in experiment [1]; 20 µg/mL (≈ 73.4 µM) in the experiment on K562 [2]; 37.5 µg/mL (≈ 138 µM) with COLO 205; 22.3 µg/mL (≈ 81.9 µM) in experiment [3]. In the experiment on K562 [4], this molecule came in with an IC50 of 47.8 µg/mL (≈ 176 µM).
